Data as given in ChEMBL document CHEMBL4346757, “Synthesis and biological evaluation of 7-methoxy-1-(3,4,5-trimethoxyphenyl)-4,5-dihydro-2H-benzo[e]indazoles as new colchicine site inhibitors” (Bioorg Med Chem Lett, 2019).
pIC50: −log10 of the molar value.

Columns and labels:
IGROV-1 = experiment: Growth inhibition of human IGROV1 cells assessed as cell growth at 0.1 uM after 48 hrs by SRB assay relative to control; assay type: functional; conditions: IGROV-1, 48 h, read-out: Activity
SN12C = experiment: Growth inhibition of human SN12C cells assessed as cell growth at 0.1 uM after 48 hrs by SRB assay relative to control; assay type: functional; conditions: read-out: Activity
EKVX = experiment: Growth inhibition of human EKVX cells assessed as cell growth at 10 uM after 48 hrs by SRB assay relative to control; assay type: functional; conditions: read-out: Activity
ACHN = experiment: Growth inhibition of human ACHN cells assessed as cell growth at 1 uM after 48 hrs by SRB assay relative to control; assay type: functional; conditions: read-out: Activity
SW-620 = experiment: Growth inhibition of human SW620 cells assessed as cell growth at 10 uM after 48 hrs by SRB assay relative to control; assay type: functional; conditions: SW-620, 48 h, read-out: Activity
RPMI-8226 [1] = experiment: Cytotoxicity against human RPMI8226 cells assessed as growth inhibition after 48 hrs by SRB assay; assay type: functional; conditions: RPMI-8226, 48 h
SNB-19 = experiment: Growth inhibition of human SNB19 cells assessed as cell growth at 100 uM after 48 hrs by SRB assay relative to control; assay type: functional; conditions: SNB-19, 48 h, read-out: Activity
PC-3 = experiment: Growth inhibition of human PC3 cells assessed as cell growth at 0.01 uM after 48 hrs by SRB assay relative to control; assay type: functional; conditions: PC-3, 48 h, read-out: Activity
A498 = experiment: Growth inhibition of human A498 cells assessed as cell growth at 100 uM after 48 hrs by SRB assay relative to control; assay type: functional; conditions: A498, 48 h, read-out: Activity
CCRF-CEM = experiment: Cytotoxicity against human CCRF-CEM cells assessed as growth inhibition after 48 hrs by SRB assay; assay type: functional
MDA-MB-435 [2] = experiment: Growth inhibition of human MDA-MB-435 cells assessed as cell growth at 1 uM after 48 hrs by SRB assay relative to control; assay type: functional; conditions: MDA-MB-435, 48 h, read-out: Activity
COLO 205 = experiment: Growth inhibition of human COLO205 cells assessed as cell growth at 10 uM after 48 hrs by SRB assay relative to control; assay type: functional; conditions: COLO 205, 48 h, read-out: Activity
NCI/ADR-RES = experiment: Growth inhibition of human NCI-ADR-RES cells assessed as cell growth at 0.01 uM after 48 hrs by SRB assay relative to control; assay type: functional; conditions: read-out: Activity
NCI-H322M = experiment: Cytotoxicity against human NCI-H322M cells assessed as growth inhibition after 48 hrs by SRB assay; assay type: functional
HCT-116 = experiment: Antiproliferative activity against human HCT116 cells assessed as reduction in cell viability by MTT assay; assay type: functional, cell-based
SF-268 = experiment: Growth inhibition of human SF268 cells assessed as cell growth at 100 uM after 48 hrs by SRB assay relative to control; assay type: functional; conditions: SF-268, 48 h, read-out: Activity
HT-29 = experiment: Growth inhibition of human HT-29 cells assessed as cell growth at 100 uM after 48 hrs by SRB assay relative to control; assay type: functional; conditions: HT-29, 48 h, read-out: Activity
SF-539 = experiment: Cytotoxicity against human SF539 cells assessed as growth inhibition after 48 hrs by SRB assay; assay type: functional; conditions: SF-539, 48 h
Hs-578T [3] = experiment: Growth inhibition of human Hs 578T cells assessed as cell growth at 100 uM after 48 hrs by SRB assay relative to control; assay type: functional; conditions: read-out: Activity
BT-549 = experiment: Growth inhibition of human BT549 cells assessed as cell growth at 0.1 uM after 48 hrs by SRB assay relative to control; assay type: functional; conditions: BT-549, 48 h, read-out: Activity
UACC-62 [4] = experiment: Growth inhibition of human UACC62 cells assessed as cell growth at 0.1 uM after 48 hrs by SRB assay relative to control; assay type: functional; conditions: UACC-62, 48 h, read-out: Activity
UACC-62 [5] = experiment: Cytotoxicity against human UACC62 cells assessed as growth inhibition after 48 hrs by SRB assay; assay type: functional; conditions: UACC-62, 48 h
RPMI-8226 [6] = experiment: Growth inhibition of human RPMI8226 cells assessed as cell growth at 0.1 uM after 48 hrs by SRB assay relative to control; assay type: functional; conditions: RPMI-8226, 48 h, read-out: Activity
A549 = experiment: Growth inhibition of human A549/ATCC cells assessed as cell growth at 1 uM after 48 hrs by SRB assay relative to control; assay type: functional; conditions: A549, 48 h, read-out: Activity
SK-MEL-5 = experiment: Growth inhibition of human SK-MEL-5 cells assessed as cell growth at 0.01 uM after 48 hrs by SRB assay relative to control; assay type: functional; conditions: SK-MEL-5, 48 h, read-out: Activity
NCI-H460 [7] = experiment: Growth inhibition of human NCI-H460 cells assessed as cell growth at 10 uM after 48 hrs by SRB assay relative to control; assay type: functional; conditions: NCI-H460, 48 h, read-out: Activity
MDA-MB-435 [8] = experiment: Growth inhibition of human MDA-MB-435 cells assessed as cell growth at 0.1 uM after 48 hrs by SRB assay relative to control; assay type: functional; conditions: MDA-MB-435, 48 h, read-out: Activity
OVCAR-5 = experiment: Growth inhibition of human OVCAR5 cells assessed as cell growth at 1 uM after 48 hrs by SRB assay relative to control; assay type: functional; conditions: OVCAR-5, 48 h, read-out: Activity
HOP-92 = experiment: Growth inhibition of human HOP92 cells assessed as cell growth at 1 uM after 48 hrs by SRB assay relative to control; assay type: functional; conditions: HOP-92, 48 h, read-out: Activity
SK-OV-3 = experiment: Growth inhibition of human SKOV3 cells assessed as cell growth at 0.1 uM after 48 hrs by SRB assay relative to control; assay type: functional; conditions: SK-OV-3, 48 h, read-out: Activity
NCI-H460 [9] = experiment: Growth inhibition of human NCI-H460 cells assessed as cell growth at 0.01 uM after 48 hrs by SRB assay relative to control; assay type: functional; conditions: NCI-H460, 48 h, read-out: Activity
Hs-578T [10] = experiment: Growth inhibition of human Hs 578T cells assessed as cell growth at 10 uM after 48 hrs by SRB assay relative to control; assay type: functional; conditions: read-out: Activity
[11] = read-out: LC50 (the source's name)
[12] = read-out: pLC50 (the source's name) (converted)

COc1ccc2c(c1)CCc1n[nH]c(-c3cc(OC)c(OC)c(OC)c3)c1-2
growth at 0.1 µM (IGROV-1): 29% | growth at 0.1 µM (SN12C): 35% | growth at 10 µM (EKVX): 37% | growth at 1 µM (ACHN): 25% | growth at 10 µM (SW-620): 14% | CC50 (RPMI-8226 [1]; [11]): > 100 µM | TGI (RPMI-8226 [1]; read-out: TGI): > 100 µM | CC50 (RPMI-8226 [1]; [12]): > 100 µM | TGI (RPMI-8226 [1]; read-out: pTGI): > 100 µM | growth at 100 µM (SNB-19): -12% | growth at 0.01 µM (PC-3): 20% | growth at 100 µM (A498): -61% | GI50 (CCRF-CEM; read-out: GI50): < 10 nM | CC50 (CCRF-CEM; [11]): > 100 µM | TGI (CCRF-CEM; read-out: TGI): > 100 µM | GI50 (CCRF-CEM; read-out: pGI50 (converted)): < 10 nM | CC50 (CCRF-CEM; [12]): > 100 µM | TGI (CCRF-CEM; read-out: pTGI): > 100 µM | growth at 1 µM (MDA-MB-435 [2]): -35% | growth at 10 µM (COLO 205): -61% | growth at 0.01 µM (NCI/ADR-RES): -13% | GI50 (NCI-H322M; read-out: GI50): < 10 nM | CC50 (NCI-H322M; [11]): > 100 µM | TGI (NCI-H322M; read-out: TGI): 39.5 µM | GI50 (NCI-H322M; read-out: pGI50 (converted)): < 10 nM | CC50 (NCI-H322M; [12]): > 100 µM | TGI (NCI-H322M; read-out: pTGI (converted)): 39.8 µM | pIC50 (HCT-116): 9.00 | growth at 100 µM (SF-268): -25% | growth at 100 µM (HT-29): -72% | GI50 (SF-539; read-out: GI50): < 10 nM | CC50 (SF-539; [11]): 29.9 µM | TGI (SF-539; read-out: TGI): < 10 nM | GI50 (SF-539; read-out: pGI50 (converted)): < 10 nM | CC50 (SF-539; [12]): 30.2 µM | TGI (SF-539; read-out: pTGI): < 10 nM | growth at 100 µM (Hs-578T [3]): -18% | growth at 0.1 µM (BT-549): 1% | growth at 0.1 µM (UACC-62 [4]): 35% | GI50 (UACC-62 [5]; read-out: GI50): < 10 nM | CC50 (UACC-62 [5]; [11]): 50 µM | TGI (UACC-62 [5]; read-out: TGI): 13 µM | GI50 (UACC-62 [5]; read-out: pGI50 (converted)): < 10 nM | CC50 (UACC-62 [5]; [12]): 50.1 µM | TGI (UACC-62 [5]; read-out: pTGI (converted)): 12.9 µM | growth at 0.1 µM (RPMI-8226 [6]): 51% | growth at 1 µM (A549): 11% | growth at 0.01 µM (SK-MEL-5): -6% | growth at 10 µM (NCI-H460 [7]): -5% | growth at 0.1 µM (MDA-MB-435 [8]): -39% | growth at 1 µM (OVCAR-5): 43% | growth at 1 µM (HOP-92): 27% | growth at 0.1 µM (SK-OV-3): -2% | growth at 0.01 µM (NCI-H460 [9]): 3% | growth at 10 µM (Hs-578T [10]): 9%
